For series [1], the target named is T1, AKR1C3 (Homo sapiens, UniProt P42330).
T1 sequence (P42330 1-323): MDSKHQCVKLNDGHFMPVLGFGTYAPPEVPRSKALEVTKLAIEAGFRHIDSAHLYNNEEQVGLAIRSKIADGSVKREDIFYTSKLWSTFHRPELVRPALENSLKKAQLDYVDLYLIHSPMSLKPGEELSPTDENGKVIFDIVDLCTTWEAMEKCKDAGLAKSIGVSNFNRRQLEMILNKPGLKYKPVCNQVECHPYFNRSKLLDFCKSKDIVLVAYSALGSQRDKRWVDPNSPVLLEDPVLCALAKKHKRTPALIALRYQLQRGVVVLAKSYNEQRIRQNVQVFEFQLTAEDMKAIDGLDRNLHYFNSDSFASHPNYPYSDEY
The series is described as follows: AKR1C3 enzyme inhibition (oxidation of S-tetralol). The class given is biochemical. To be noted: role: substrate. The method, then:
(§1) Enzyme Inhibition Assay. (S)-(+)-1,2,3,4-tetrahydro-1-naphthol (S-tetralol) was purchased from Sigma-Aldrich (St. Louis, MO). Nicotinamide adenine dinucleotide (NAD^+) and nicotinamide adenine dinucleotide phosphate (NADP^+) were purchased from Roche Diagnostics (Indianapolis, IN). Homogeneous recombinant enzymes AKR1C1, AKR1C2, AKR1C3 and AKR1C4 were prepared and purified as previously described.^3 The specific activities of AKR1C3 and AKR1C2 for the oxidation of S-tetralol are 2.0 and 1.5 μmol/(min mg), respectively.
(§2) Assay of Enzyme Activity. The dehydrogenase activities of AKR1C3 and AKR1C2 were determined by measuring the UV absorption of NADH formation at 340 nm using a Beckman DU-640 spectrophotometer. […] After continuously monitoring for 5 min, we recorded the increase in UV absorption using different concentrations of an enzyme to calculate the initial velocity and determine the specific activity of the enzyme.
(§3) IC50 Value Determination. The inhibitory potency for each compound was represented by IC50 values and measured as described before. The IC50 values of [COMPOUND LEFT OUT] and [COMPOUND LEFT OUT] analogues were determined by measuring their inhibition of the NADP+-dependent oxidation of S-tetralol catalyzed by AKR1C3 or AKR1C2. […]

In the next series the target is T2, AKR1C2 (Homo sapiens, UniProt P52895).
T2 construct: made in house
T2 sequence (P52895 1-323): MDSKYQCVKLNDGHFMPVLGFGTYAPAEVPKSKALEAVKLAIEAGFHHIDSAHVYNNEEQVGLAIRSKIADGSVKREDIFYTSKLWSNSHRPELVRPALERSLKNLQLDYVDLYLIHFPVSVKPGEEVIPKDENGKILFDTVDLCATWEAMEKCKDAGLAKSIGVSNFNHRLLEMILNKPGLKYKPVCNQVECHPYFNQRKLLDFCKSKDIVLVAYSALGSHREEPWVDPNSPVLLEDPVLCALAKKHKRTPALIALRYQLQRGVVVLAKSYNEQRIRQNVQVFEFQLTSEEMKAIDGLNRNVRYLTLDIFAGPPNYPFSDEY
The series is described as follows: AKR1C2 enzyme inhibition (oxidation of S-tetralol). The class given is biochemical. Particulars: role: substrate; 3.0 mM S-tetralol, 2.3 mM NAD+, 100 mM potassium phosphate pH 7.0, 37 °C. The method, then: as §1, §2, §3

Series [2] has as its target T1, AKR1C3. Description: AKR1C3 protein degradation in 22Rv1 prostate cancer cells (Western blot). The series is classed as cell-based. Also on record: 22Rv1 prostate cancer cells that express high levels of AKR1C3; host or cells: 22Rv1. Particulars: 1 μM and 10 μM; 24 h; in words. The method, then:
Protein Expression via Western Blot. 22Rv1 cells were seeded in a 6-well plate and incubated overnight. Next day, the cells were treated with varying concentrations of 6 (1 and 10 μM) and 5 (0.5, 1, 10, 50, 100, 250, and 500 nM; 1, 10, and 50 μM) for 24 hours and 5 (1 and 10 nM) at different time points (0, 2, 4, 6, 12, 16, 24, 48, and 72 h). Whole cell lysates were extracted in RIPA lysis buffer containing protease inhibitor and EDTA (Fisher Scientific, PI78440). Protein concentrations in each sample was estimated following BCA assay (Pierce™ BCA protein assay kit, Fisher Scientific, PI23227) as per the manufacturer's protocol. Proteins were standardized using RIPA lysis buffer with Laemelli SDS sample buffer (Thermo Scientific, AAJ61337AC) and heated at 1000C for 15 minutes. The proteins were resolved on a 4-12% premade gel (Invitrogen, NW04120BOX) at 60-90 V in 20× Bolt™ MES SDS running buffer (Fisher Scientific, B000202) and transferred onto a nitrocellulose membrane (Invitrogen, IB23001) using iBlot 2. The membranes were blocked with 2.5% non-fat dry milk (Bio-Rad, 1706404) for 1 h, and the membrane was incubated overnight on a rocking platform at 4 °C with the desired primary antibodies against AKR1C3 (mouse mAb, 1:200, Sigma, A6229), AKR1C1/C2 (rabbit mAb, 1:500, Abcam, ab179448), ARv7 (rabbit mAb, 1:500, Abcam, ab198394) and actin (mouse mAb, 1:1,000, ThermoFisher, MA5-11869). The membranes were washed three times, 10 minutes each, with 1×Tris-buffered saline (TBST, Bio-Rad, 1706435) in 0.1% Tween 20, on a rocking platform wherein they were incubated with rabbit anti-mouse IgG (ThermoFisher, 31450) or goat anti-rabbit IgG (Jackson ImmunoResearch, 111-035-003) secondary antibody (1:1,000) horseradish peroxidase conjugate for 1 hour. The membranes were again washed three times with 1×TBST, upon which they were exposed to LI-COR WesternSure PREMIUM chemiluminescent substrate (Fisher Scientific, 50-489-552) and developed in a dark room with Konica Minolta equipment. Bands were quantified by densitometry using ImageJ software and fold change in AKR1C3, AKR1C1/C2, and ARv7 protein expression was determined based on actin controls. […]
The AKR1C3 degradation effect of PROTAC 5 was screened across a range of concentrations to identify a suitable treatment protocol. 22Rv1 cells were treated with increasing concentrations of […], DMSO or lenalidomide 6 at 1 μM and 10 μM for 24 hours, and the degradation profile was determined by Western blot analysis with antibody for AKR1C3.
Background: In western blotting, separated proteins are transferred to a membrane and probed.

Series [3] relates to 22Rv1 prostate cancer cells. The series is described as follows: 22Rv1 cell viability (MTS assay). The series is classed as cell-based. To be noted: 72 h. The method, then: Cell culture and reagents. 22Rv1 cells were purchased from the American Type Culture Collection (ATCC in 2016) and cultured in RPMI 1640 supplemented with 10% Fetal Bovine Serum (FBS, Fisher Scientific, MT35011CV) and Penicillin-Streptomycin Solution (1%, Fisher Scientific, MT30001Cl) at 37 °C in a humidified incubator with 5% carbon dioxide atmosphere. Stock solutions of E3 ligase ligand, lenalidomide 6 (10 mM), PROTAC 5 (25 mM), and AKR1C3 inhibitor 3 (100 mM) were prepared in DMSO.
Cell viability assay. Cells were seeded at a density of 10,000 cells/well in a 96-well plate containing 100 μL growth media per well and were incubated at 37 °C in a humidified incubator with 5% carbon dioxide over ~18-24 hours. Cells were treated with 6, 5, and 3 serially diluted at the indicated concentrations limiting the final DMSO concentration to less than 0.1% and incubated at 37 °C for 72 hours. 10 μL of MTS reagent (CellTiter96®Aqueous One Solution Reagent, Promega, G3580) was added to each well and incubated at the above-mentioned conditions for 4 hours. Absorbance was recorded at OD 490 nm on a Synergy LX multi-mode reader and the viability of cells were plotted as percentage of DMSO control.
A general note: Tetrazolium dyes change colour on reduction, which living cells bring about.

Substrate in series [4]: O[C@H]1CCCc2ccccc21
The series is described as follows: AKR1C2 enzyme inhibition (oxidation of S-tetralol). The class given is biochemical. Particulars: other: role: substrate; NADP+-dependent oxidation; pH 7.0; 37.0 °C. The method, then: as §1, §2, §3

For orientation: Km means the concentration of substrate that gives half-maximal velocity. With `O[C@H]1CCCc2ccccc21` [S-tetralol, (S)-(+)-1,2,3,4-tetrahydro-1-naphthol], on AKR1C3 [1] (3.0 mM S-tetralol, 2.3 mM NAD+, 100 mM potassium phosphate pH 7.0, 37 °C), the “specific activity of AKR1C3 for oxidation of S-tetralol” value is 2.0 µmol/min/mg. Also, the Michaelis constant (Km) at AKR1C3 [1] (NADP+-dependent oxidation) turned out to be 165 µM. The “specific activity of AKR1C2 for oxidation of S-tetralol” value on AKR1C2 worked out at 1.5 µmol/min/mg.
A word on the IC50: it is the midpoint of a concentration-inhibition curve. Consider `Nc1cccc2c1CN(C1CCC(=O)NC1=O)C2=O` (stereo not shown) [lenalidomide 6, lenalidomide, reference compound], for which, at AKR1C3 [2], the “effect on AKR1C3 expression” value was “no effect on AKR1C3 expression”. Also, the “22Rv1 cell viability activity in words” value in series [3] was “no activity”. Moreover, the IC50 in series [3] (Homo sapiens, 22Rv1, MTS, mean±standard deviation of two independent experiments) was more than 100 µM.

B1: AKR1C2 (Homo sapiens) (protein)
chain: MDSKYQCVKLNDGHFMPVLGFGTYAPAEVPKSKALEAVKLAIEAGFHHIDSAHVYNNEEQVGLAIRSKIADGSVKREDIFYTSKLWSNSHRPELVRPALERSLKNLQLDYVDLYLIHFPVSVKPGEEVIPKDENGKILFDTVDLCATWEAMEKCKDAGLAKSIGVSNFNHRLLEMILNKPGLKYKPVCNQVECHPYFNQRKLLDFCKSKDIVLVAYSALGSHREEPWVDPNSPVLLEDPVLCALAKKHKRTPALIALRYQLQRGVVVLAKSYNEQRIRQNVQVFEFQLTSEEMKAIDGLNRNVRYLTLDIFAGPPNYPFSDEY
notes: made in house
B1: the Km in series [4] turned out to be 15 µM.

The values are drawn from US20260364181A1, “AKR1C3 Targeted Heterobifunctional Small Molecule Proteolysis Targeting Chimeras” (BOARD OF REGENTS OF THE UNIVERSITY OF NEBRASKA, priority 2022, published 2026).
